Assay results reported in US5840725A, “Substituted oximes, hydrazones and olefins as neurokinin antagonists” (Schering Corporation, priority 1997, dated 1998).
Like-named read-outs stand apart in the source and are kept apart here.

Key:
[1] = target: T1, human neurokinin 1 (NK1) receptor (Homo sapiens, UniProt P25103); test: Neurokinin Receptor Binding Assay, NK1
T1 construct: expressed in transfected cells; host or cells: Chinese Hamster ovary (CHO) cells
Experimental: (§1) Neurokinin Receptor Binding Assay(s)
(§2) Chinese Hamster ovary (CHO) cells transfected with the coding regions for the human neurokinin 1 (NK1) of the human neurokinin 2 (NK2) receptors are grown in Dulbecco's minimal essential medium supplemented with 10% fetal calf serum, 0.1 mM non-essential amino acids, 2 mM glutamine, 100units/ml of penicillin and streptomycin, and 0.8 mg of G418/ml at 37° C. in a humidified atmosphere containing 5% CO2.
(§3) Cells are detached from T-175 flasks with a sterile solution containing 5 mM EDTA in phosphate buffered saline. Cells are harvested by centrifugation and washed in RPMl media at […] for 5 minutes. The pellet is resuspended inTris-HCl (pH7.4) containing 1 uM phsphoramidon and 4 ug/ml of chymostatin at a cell density of 30×10^6 cells/ml. The suspension is then homogenized in a Brinkman Polytron (setting 5) for 30-45 seconds. The homogenate is centrifuged at 800×g for 5 min at 4° C. to collect unbroken cells and nuclei. The supernatant is centrifuged in a Sorvall RC5C at 19,000 rpm ([…]) for 30 min at 4° C. The pellet is resuspended, an aliquot is removed for a protein determination (BCA) and washed again. The resulting pellet is stored at -80° C.
(§4) To assay receptor binding, 50 μl of [^3 H]-Substance P (9-Sar, 11 -Met) (specific activity 41 Ci/mmol) (Dupont-NEN) (0.8 nM for the NK-1 assay) or [^3 H]-Neurokinin A (specific activity 114 Ci/mmole) (Zenca) (1.0 nM for the NK-2 assay) is added to tubes containing buffer (50 mM Tris-HCl (pH 7.4) with 1 mM MnCl2 and 0.2% Bovine Serum Albumin) and either DMSO or test compound. Binding is initiated by the addition of 100 μl of membrane (10-20 μg) containing the human NK-1 or NK-2 receptor in a final volume of 200 μl. After 40 minutes at room temperature, the reaction is stopped by rapid filtration onto Whatman GF/C filters which have been presoaked in 0.3% polyethylenimine. Filters are washed 2 times with 3 ml of 50 mM Tris-HCl (pH7.4). Filters are added to 6 mIs of Ready-Safe liquid scintillation cocktail and quantified by liquid scintillation spectrometry in a LKB 1219 RackBeta counter. Non-specific binding is determined by the addition of either 1 μM of CP-99994 (NK-1) or 1 μM SR-48968 (NK-2) (both synthesized by the chemistry department of Schering-Plough Research Institute). IC50 values are determined from competition binding curves and Ki values are determined according to Cheng and Prusoff using the experimentally determined value of 0.8 nM for the NK-1 receptor and 2.4 nM for the NK-2 receptor.
(§5) % Inhibition is the difference between the percent of maximum specific binding (MSB) and 100%. The percent of MSB is defined by the following equation, wherein "dpm" is disintegrations per minute: [formula]

[2] = target: T2, human neurokinin 2 (NK2) receptor (Homo sapiens, UniProt P21452); test: Neurokinin Receptor Binding Assay, NK2; conditions: for inhibition at 1 µM: read-out: % Inhibition NK2 (1 μM dose)
T2 construct: expressed in transfected cells; host or cells: Chinese Hamster ovary (CHO) cells
T2 sequence (P21452 1-398): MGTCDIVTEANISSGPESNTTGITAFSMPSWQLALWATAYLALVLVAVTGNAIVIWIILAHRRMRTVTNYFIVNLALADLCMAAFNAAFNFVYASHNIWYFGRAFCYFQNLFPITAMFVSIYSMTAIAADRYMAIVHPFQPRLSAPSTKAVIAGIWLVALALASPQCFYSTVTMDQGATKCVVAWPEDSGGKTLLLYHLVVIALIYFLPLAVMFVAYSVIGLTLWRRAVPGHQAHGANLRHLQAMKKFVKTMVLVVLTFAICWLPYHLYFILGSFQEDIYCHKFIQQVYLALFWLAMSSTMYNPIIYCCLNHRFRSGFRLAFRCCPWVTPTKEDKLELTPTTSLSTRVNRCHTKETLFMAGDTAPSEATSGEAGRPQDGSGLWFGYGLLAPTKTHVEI
Experimental: as §1, §2, §3, §4, §5

[3] = target: T3, NK3 (Homo sapiens, UniProt P29371); test: NK3 activity (procedure similar to literature); assay type: binding
T3 sequence (P29371 1-465): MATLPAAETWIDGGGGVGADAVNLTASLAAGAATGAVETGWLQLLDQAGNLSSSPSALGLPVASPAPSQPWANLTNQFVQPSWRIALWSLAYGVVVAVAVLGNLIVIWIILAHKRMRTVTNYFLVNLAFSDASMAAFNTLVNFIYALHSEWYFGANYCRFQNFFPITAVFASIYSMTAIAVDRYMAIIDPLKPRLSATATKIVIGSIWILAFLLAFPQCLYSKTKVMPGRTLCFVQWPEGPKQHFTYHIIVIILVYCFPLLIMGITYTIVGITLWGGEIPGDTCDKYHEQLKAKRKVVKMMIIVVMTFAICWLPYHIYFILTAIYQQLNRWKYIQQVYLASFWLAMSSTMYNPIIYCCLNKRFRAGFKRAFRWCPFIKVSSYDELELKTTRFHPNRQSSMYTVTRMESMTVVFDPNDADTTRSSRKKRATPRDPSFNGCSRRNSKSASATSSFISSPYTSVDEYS
Experimental: NK3 activity is determined by following a procedure similar to that described in the literature, e.g., Molecular PharmacoL, 48 (1995), p. 711-716.

[4] = [3H]-Substance P, CHO cell membranes
[5] = [3H]-Substance P, CHO cell membranes, read-out: Ki (NK1)
[6] = 1 μM dose, [3H]-Neurokinin A, CHO cell membranes
[7] = [3H]-Neurokinin A, CHO cell membranes, read-out: Ki (NK2)

T1 sequence (P25103 whole entry): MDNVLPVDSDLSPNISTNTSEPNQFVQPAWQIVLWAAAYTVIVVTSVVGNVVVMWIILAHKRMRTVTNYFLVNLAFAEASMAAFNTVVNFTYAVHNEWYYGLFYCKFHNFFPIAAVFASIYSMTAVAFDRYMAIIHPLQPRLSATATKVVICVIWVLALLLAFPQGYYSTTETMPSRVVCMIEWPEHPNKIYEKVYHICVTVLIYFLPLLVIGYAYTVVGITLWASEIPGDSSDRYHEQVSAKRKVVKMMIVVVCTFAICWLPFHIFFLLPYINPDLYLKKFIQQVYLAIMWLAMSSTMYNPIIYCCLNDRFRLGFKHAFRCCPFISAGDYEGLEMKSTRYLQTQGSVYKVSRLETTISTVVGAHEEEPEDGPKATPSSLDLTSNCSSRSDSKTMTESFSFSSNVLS

Row | SMILES | inhibition at 1 µM [1, 4] | Ki [1, 5] | inhibition at 1 µM [2, 6] | Ki [2, 7] | Ki [1] | Ki [3] | Ki [2] | inhibition at 1 µM [2]
1 | CON=C(COCc1cc(C(F)(F)F)cc(C(F)(F)F)c1)C(CCN1CCC(C(=O)N2CCCC2)CC1)c1ccc(Cl)c(Cl)c1 (stereo not shown) [Example 42L] | 91% | 4.6 nM | 86% | 123 nM | – | – | – | –
2 | NC(CON=C(COCc1cc(C(F)(F)F)cc(C(F)(F)F)c1)C(CCN1CCC(N2CCCCC2)CC1)c1ccc(Cl)c(Cl)c1)=NO (stereo not shown) [Example 39F] | 93% | 4.3 nM | 96% | 12 nM | – | – | – | –
3 | OC1(c2ccccc2)CCN(CCC(C(COCc2cc(C(F)(F)F)cc(C(F)(F)F)c2)=NOCc2ccccc2)c2ccc(Cl)c(Cl)c2)CC1 (stereo not shown) [Example 1C] | 44% | – | 16% | – | – | – | – | –
4 | CCOC(=O)C=C(COCc1cc(C(F)(F)F)cc(C(F)(F)F)c1)C(CCN1CCC(O)(c2ccccc2)CC1)c1ccc(Cl)c(Cl)c1 (stereo not shown) [Example 2] | 69% | 40 nM | 17% | – | – | – | – | –
5 | CON=C(COCc1noc(C(C)(C)C)n1)C(CCN1CCC(O)(c2ccccc2)CC1)c1ccc(Cl)c(Cl)c1 (stereo not shown) [Example 22AL] | 12% | – | 100% | 2 nM | – | – | – | –
6 | OCCN(CC=C(COCc1cc(C(F)(F)F)cc(C(F)(F)F)c1)C(CCN1CCC(O)(c2ccccc2)CC1)c1ccc(Cl)c(Cl)c1)CCO (stereo not shown) [Example 35C] | 93% | 2 nM | 0% | – | – | – | – | –
7 | CON=C(COCc1cc(C(F)(F)F)cc(C(F)(F)F)c1)C(CCN1CCC(O)(c2ccccc2)CC1)c1ccc(Cl)c(Cl)c1 (stereo not shown) [Example 1] | 88% | – | – | – | 25 nM | 109 nM | 20 nM | 95%
8 | CON=C(COCc1cccc(C)c1F)C(CCN1CCC(O)(c2ccccc2)CC1)c1ccc(Cl)c(Cl)c1 (stereo not shown) [Example 22AK] | 67% | 132 nM | 95% | 2 nM | – | – | – | –
9 | CN1CCN(N=C(COCc2cc(C(F)(F)F)cc(C(F)(F)F)c2)C(CCN2CCC(O)(c3ccccc3)CC2)c2ccc(Cl)c(Cl)c2)CC1 (stereo not shown) [Example 7] | 69% | 121 nM | 13% | – | – | – | – | –
